# Experimental data from patent US11415579B2, “Assay for measuring a rate of reaction between a target and a ligand candidate” (Imperial College Innovations Ltd., priority 2016, dated 2022).
# Tests used:
# Cdk2(N272C) (C177A) = target: T1, Cdk2(N272C) (C177A) (Homo sapiens, UniProt P24941, C177A/N272C); experiment: Kinetic thiol consumption assay with Cdk2 mutant N272C; type: binding; set-up: key to Rate enhancement, Cdk2 N272: rate constant with Cdk2 ÷ rate constant with model thiol (fold); details: for Rate enhancement, Cdk2 N272: Cdk2 N272, additional mutation C177A; for Rate constant with Cdk2 N272C: Protein: Cdk2, cysteine position N272C, additional mutation C177A, in h^-1
# T1 construct: poly-histidine; made in house; host or cells: E. coli
# Procedure, shortened: (§1)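 His-tagged single-surface-cysteine Cdk2 mutants (C177A background) from E. coli, 5 μM in degassed phosphate buffer pH 8, pre-treated with immobilized TCEP beads. Fluorescence (ex/em 380/470 nm) read after 1 h at room temperature, normalized to DMSO/thiol-only control; first-order decay fits gave rate constants, divided by model-thiol rate for rate enhancement.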
# Cdk2(S181C) (C177A) = target: T2, Cdk2(S181C) (C177A) (Homo sapiens, UniProt P24941, C177A/S181C); experiment: Kinetic thiol consumption assay with Cdk2 mutant S181C; type: binding; set-up: key to Rate enhancement, Cdk2 S181C: rate constant with Cdk2 ÷ rate constant with model thiol (fold); details: additional mutation C177A; for Rate constant with Cdk2 S181C: Protein: Cdk2, cysteine position S181C, in h^-1
# T2 construct: poly-histidine; made in house; host or cells: E. coli
# Procedure, shortened: as §1
# Cdk2(S276C) (C177A) = target: T3, Cdk2(S276C) (C177A) (Homo sapiens, UniProt P24941, C177A/S276C); experiment: Kinetic thiol consumption assay with Cdk2 mutant S276C; type: binding; set-up: key to Rate enhancement, Cdk2 S276C: rate constant with Cdk2 ÷ rate constant with model thiol (fold); details: additional mutation C177A; for Rate constant with Cdk2 S276C: Protein: Cdk2, cysteine position S276C, in h^-1
# T3 construct: poly-histidine; made in house; host or cells: E. coli
# Procedure, shortened: as §1
# Cdk2(C177A, F80C) = target: T4, Cdk2(C177A, F80C) (Homo sapiens, UniProt P24941, C177A/F80C); experiment: Kinetic thiol consumption assay with Cdk2 mutant F80C, incl. kobs versus concentration (Kd, k2); type: binding; set-up: key to Rate enhancement, Cdk2 F80C: Cdk2 rate constant divided by model-thiol rate constant; details: additional mutation C177A; for Rate constant with Cdk2 F80C: Protein: Cdk2, cysteine position F80C, in h^-1
# T4 construct: poly-histidine; made in house; host or cells: E. coli
# Procedure, shortened: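 His-tagged Cdk2(C177A/F80C) from E. coli or model thiol, 5 μM in degassed phosphate buffer pH 8 with TCEP beads, reacted with acrylamide ligands; fluorescence (ex/em 380/470 nm) normalized to DMSO control and fitted to first-order decay for kobs. Kd and k2 obtained from hyperbolic fit of kobs versus ligand concentration.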
# Cdk2[C177A, F80C, K278C] = target: T5, Cdk2[C177A, F80C, K278C] (Homo sapiens, UniProt P24941, C177A/F80C/K278C); experiment: Kinetic thiol consumption assay with mutant Cdk2 as model thiol; type: binding; set-up: unit not given here; details: 500 μM ligand, 5 μM thiol, phosphate buffer pH 8
# T5 construct: poly-histidine; made in house; host or cells: E. coli
# Procedure, shortened: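 Model thiol: His-tagged human Cdk2 C177A/F80C/K278C (two engineered surface cysteines), E. coli-expressed, 5 μM in degassed phosphate buffer pH 8 with immobilized TCEP beads (2% v/v). Fluorescence (ex/em 380/470 nm) followed over time at room temperature, normalized to DMSO/thiol control. First-order decay fit gives rate constants.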
# Cdk2(T182C) (C177A) = target: T6, Cdk2(T182C) (C177A) (Homo sapiens, UniProt P24941, C177A/T182C); experiment: Kinetic thiol consumption assay with Cdk2 mutant T182C; type: binding; set-up: key to Rate enhancement, Cdk2 T182C: rate constant with Cdk2 ÷ rate constant with model thiol (fold); details: additional mutation C177A; for Rate constant with Cdk2 T182C: Protein: Cdk2, cysteine position T182C, in h^-1
# T6 construct: poly-histidine; made in house; host or cells: E. coli
# Procedure, shortened: as §1
# Cdk2(R122C) (C177A) = target: T7, Cdk2(R122C) (C177A) (Homo sapiens, UniProt P24941, C177A/R122C); experiment: Kinetic thiol consumption assay with Cdk2 mutant R122C; type: binding; set-up: key to Rate enhancement, Cdk2 R122C: rate constant with Cdk2 ÷ rate constant with model thiol (fold); details: additional mutation C177A; for Rate constant with Cdk2 R122C: Protein: Cdk2, cysteine position R122C, in h-1
# T7 construct: poly-histidine; made in house; host or cells: E. coli
# Procedure, shortened: as §1
# Cdk2(H71C) (C177A) = target: T8, Cdk2(H71C) (C177A) (Homo sapiens, UniProt P24941, C177A/H71C); experiment: Kinetic thiol consumption assay with Cdk2 mutant H71C; type: binding; set-up: key to Rate enhancement, Cdk2 H71C: rate constant with Cdk2 ÷ rate constant with model thiol (fold); details: additional mutation C177A; for Rate constant with Cdk2 H71C: Protein: Cdk2, cysteine position H71C, in h^-1
# T8 construct: poly-histidine; made in house; host or cells: E. coli
# Procedure, shortened: as §1
# [1] = Kinetic thiol consumption assay with model thiol glutathione; type: physicochemical; set-up: Rate constant with glutathione (k(GSH)): unit not given here; details: for Rate constant with glutathione (k(GSH)): 500 μM ligand, 5 μM thiol, phosphate buffer pH 8; for Rate constant with Glutathione: Protein: Glutathione, cysteine position NA, in h-1
# Procedure, shortened: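 Rate constants for acrylamide reaction with 5 μM glutathione come from first-order exponential fits of normalized fluorescence decay (ex 380, em 470 nm). Reactions run in degassed phosphate buffer at pH 8 containing TCEP beads, room temperature.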
# [2] = target: T9, human cyclin-dependent kinase 2 (Cdk2) (Homo sapiens, UniProt P24941); experiment: Kinetic thiol consumption assay with wild type Cdk2 (C177); type: binding; set-up: key to Rate enhancement, Cdk2 WT: k(Cdk2) divided by k(model thiol); Rate constant with Cdk2 (k(Cdk2)): unit not given here; details: for Rate constant with Cdk2 (k(Cdk2)): 500 μM ligand, 5 μM thiol, phosphate buffer pH 8; for Rate enhancement, Cdk2 WT: no additional mutations; for Rate constant with Cdk2 WT: Protein: Cdk2, cysteine position WT, in h^-1; for k(Cdk2)/k(Cdk2_mut) rate enhancement: model thiol Cdk2[C177A, F80C, K278C]; for k(Cdk2)/k(GSH) rate enhancement: model thiol glutathione
# T9 construct: poly-histidine; made in house; host or cells: E. coli
# Procedure, shortened: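 Rate enhancement: first-order decay constant with Cdk2 over that with a model thiol. Thiols (5 μM, degassed phosphate buffer pH 8, immobilized TCEP) were incubated with acrylamides at room temperature, and thiol consumption followed by fluorescence at 380/470 nm, normalized to DMSO control. Cdk2 was His-tagged, E. coli-expressed, with one surface cysteine (C177).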
SMILES,"Rate enhancement, Cdk2 N272 (Cdk2(N272C) (C177A))",Rate constant with Cdk2 N272C (Cdk2(N272C) (C177A)),"Rate enhancement, Cdk2 S181C (Cdk2(S181C) (C177A))",Rate constant with Cdk2 S181C (Cdk2(S181C) (C177A)),"Rate enhancement, Cdk2 S276C (Cdk2(S276C) (C177A))",Rate constant with Cdk2 S276C (Cdk2(S276C) (C177A)),"Rate enhancement, Cdk2 F80C (Cdk2(C177A, F80C))","Rate constant with Cdk2[C177A, F80C, K278C] (k(Cdk2_mut)) (Cdk2[C177A, F80C, K278C])","Rate enhancement, Cdk2 T182C (Cdk2(T182C) (C177A))",Rate constant with Cdk2 T182C (Cdk2(T182C) (C177A)),"Rate enhancement, Cdk2 R122C (Cdk2(R122C) (C177A))",Rate constant with Cdk2 R122C (Cdk2(R122C) (C177A)),"Rate enhancement, Cdk2 H71C (Cdk2(H71C) (C177A))",Rate constant with glutathione (k(GSH)) [1],Rate constant with Glutathione [1],Rate constant with Cdk2 (k(Cdk2)) [2],"Rate enhancement, Cdk2 WT [2]",Rate constant with Cdk2 WT [2],k(Cdk2)/k(Cdk2_mut) rate enhancement [2],k(Cdk2)/k(GSH) rate enhancement [2],further results
C=CC(=O)Nc1ccc2c(c1)OC1(CCCC1)O2 [CA-054],1.248,0.005397,0.4697,0.002032,0.9498,0.004109,1.482,0.04027,1.059,0.004582,0.4198,0.001816,1.023,0.00434,0.004326,0.00267,0.6163,0.002666,0.0662,0.614,"Rate constant with Cdk2 F80C (Cdk2(C177A, F80C)): 0.006411; Rate constant with Cdk2 H71C (Cdk2(H71C) (C177A)): 0.004426"
C=CC(=O)NC1C2CC3CC(C2)CC1C3 (stereo not shown) [CA-055],4.591,0.01093,1.073,0.002556,0.6972,0.00166,0,0.00101,0.2621,0.0006241,0.4288,0.001021,0.4859,0.00243,0.002381,0.0007,0.4066,0.0009681,0.6937,0.2881,Rate constant with Cdk2 H71C (Cdk2(H71C) (C177A)): 0.001157
C=CC(=O)NCC1CCCN1S(=O)(=O)c1ccc(C(=O)O)cc1 (stereo not shown) [BN122],0.7423,0.004448,0.9743,0.005838,0.1643,0.0009842,0.3899,0.00117,2.502,0.01499,0.4317,0.002587,0,0.00283,0.005992,0.00219,0.3657,0.002191,1.879,0.7753,"Rate constant with Cdk2 F80C (Cdk2(C177A, F80C)): 0.002336"
